According to patent publication US8093259B2, “4-methyl-3-[[4-(3-pyridinyl)-2-pyrimidinyl]amino]-N-[5-(4-methyl-1H-imidazol-1-yl)-3-(trifluoromethyl)phenyl]-benzamide for treatment of melanoma” (Novartis AG, priority 2006, dated 2012):
Like-named read-outs stand apart in the source and are kept apart here.

Assays:
EphB4 = target: T1, EphB4 (Homo sapiens, UniProt P54760); test: Cell capture ELISA of EphB4 phosphorylation in stably transfected A375 melanoma cells stimulated with ephrinB2; assay type: cell-based; conditions: two independent experiments
T1 sequence (P54760 16-987): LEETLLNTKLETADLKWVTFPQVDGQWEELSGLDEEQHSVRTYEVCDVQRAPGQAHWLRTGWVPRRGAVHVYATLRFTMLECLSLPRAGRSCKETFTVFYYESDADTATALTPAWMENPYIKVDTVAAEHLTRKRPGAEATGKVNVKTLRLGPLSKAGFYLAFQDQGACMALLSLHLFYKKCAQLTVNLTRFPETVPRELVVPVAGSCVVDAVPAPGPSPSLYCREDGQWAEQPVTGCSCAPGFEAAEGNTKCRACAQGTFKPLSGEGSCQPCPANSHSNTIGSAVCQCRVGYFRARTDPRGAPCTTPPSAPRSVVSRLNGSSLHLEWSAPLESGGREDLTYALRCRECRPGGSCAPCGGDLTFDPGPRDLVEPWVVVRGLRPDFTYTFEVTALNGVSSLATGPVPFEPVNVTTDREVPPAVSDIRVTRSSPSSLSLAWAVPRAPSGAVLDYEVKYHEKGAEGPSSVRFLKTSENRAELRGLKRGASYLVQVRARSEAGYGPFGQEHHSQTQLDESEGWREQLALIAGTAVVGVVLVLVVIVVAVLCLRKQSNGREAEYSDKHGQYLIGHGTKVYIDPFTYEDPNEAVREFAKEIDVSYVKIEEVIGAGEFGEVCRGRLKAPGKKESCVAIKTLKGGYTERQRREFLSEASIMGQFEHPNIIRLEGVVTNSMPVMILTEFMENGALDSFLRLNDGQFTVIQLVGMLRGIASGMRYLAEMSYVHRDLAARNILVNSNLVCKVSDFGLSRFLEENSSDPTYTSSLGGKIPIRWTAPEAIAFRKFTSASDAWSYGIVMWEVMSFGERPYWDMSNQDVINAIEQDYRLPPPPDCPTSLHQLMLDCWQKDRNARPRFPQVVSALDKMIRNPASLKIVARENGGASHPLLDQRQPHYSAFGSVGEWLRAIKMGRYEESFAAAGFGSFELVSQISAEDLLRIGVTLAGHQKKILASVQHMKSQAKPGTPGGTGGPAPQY
Experimental: A cell capture ELISA has been set up to quantify the amount of phosphorylated EphB4 receptor protein in cell extracts. To this purpose, A375 melanoma cells have been stably transfected with full length EphB4 and EphB4 phosphorylation was induced by the addition of the ligand ephrinB2 in the presence of vanadate. Lysates from unstimulated cells were used as negative controls. […] Measurements were done in duplicates and two independent experiments were performed. Cell lysates were prepared and the receptor protein was captured on ELISA plates. Phosphorylated receptor was detected and quantified using alkaline phosphatase coupled anti-phosphotyrosine antibodies.

murine EphB4 kinase = target: T2, murine EphB4 kinase (Mus musculus, UniProt P54761); test: EphB4 phosphorylation in lung tissue of mice (anti-pY Western blot of immunoprecipitates); assay type: in vivo; conditions: naïve mice, 50 mg/kg p.o.
T2 construct: from tissue; host or cells: mouse lung tissue
T2 sequence (P54761 16-987): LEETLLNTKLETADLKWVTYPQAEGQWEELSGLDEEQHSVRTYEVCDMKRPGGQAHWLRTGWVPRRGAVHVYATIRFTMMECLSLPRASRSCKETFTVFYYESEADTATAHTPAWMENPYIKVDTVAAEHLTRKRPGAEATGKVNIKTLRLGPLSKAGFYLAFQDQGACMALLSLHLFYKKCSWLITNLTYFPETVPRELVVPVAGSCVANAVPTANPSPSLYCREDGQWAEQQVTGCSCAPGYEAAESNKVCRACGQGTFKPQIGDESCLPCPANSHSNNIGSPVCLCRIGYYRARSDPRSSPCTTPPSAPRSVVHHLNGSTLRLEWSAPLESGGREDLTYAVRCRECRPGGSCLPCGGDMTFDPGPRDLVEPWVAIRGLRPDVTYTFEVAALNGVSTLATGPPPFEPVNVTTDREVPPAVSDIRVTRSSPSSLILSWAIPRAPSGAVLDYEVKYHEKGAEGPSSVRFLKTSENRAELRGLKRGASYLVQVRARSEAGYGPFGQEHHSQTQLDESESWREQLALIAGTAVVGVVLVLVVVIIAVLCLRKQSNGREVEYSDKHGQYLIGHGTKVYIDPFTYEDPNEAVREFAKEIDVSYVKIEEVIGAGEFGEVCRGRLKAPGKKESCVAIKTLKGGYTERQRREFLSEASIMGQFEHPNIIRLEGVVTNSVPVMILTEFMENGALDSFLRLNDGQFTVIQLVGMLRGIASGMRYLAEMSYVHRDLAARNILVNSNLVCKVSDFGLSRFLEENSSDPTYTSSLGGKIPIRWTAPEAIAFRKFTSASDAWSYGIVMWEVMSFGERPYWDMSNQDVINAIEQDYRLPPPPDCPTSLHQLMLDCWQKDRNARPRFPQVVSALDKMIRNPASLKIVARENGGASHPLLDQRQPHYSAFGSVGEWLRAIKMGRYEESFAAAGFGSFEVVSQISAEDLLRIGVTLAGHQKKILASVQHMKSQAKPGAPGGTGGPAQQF
Experimental: (§1) Plasma and lung samples were collected. Lung samples were split into two parts, one lobe was further processed for pharmacokinetic analysis, the other lobe was processed for analysis of phosphorylated EphB4 receptor. For controls, one group of animals was treated for 2 h with NMP (10%) PEG (90%).

[1] = mouse, in vivo, po, 50 mg/kg
Experimental: as §1

Phosphorylation of EphB4 in lung tissue (murine EphB4 kinase; 2 h after administration): nearly abolished
Phosphorylation of EphB4 in lung tissue (murine EphB4 kinase; 24 h after administration): recovers to control levels
Effect on EphB4 protein levels in lung tissue (murine EphB4 kinase; both time points (2 h and 24 h)): No effect
Compound level in lung tissue ([1]; 2 h): 40 to 50 nmol/g
Compound level in lung tissue ([1]; 24 h): 0.7 nmol/g
Structure (SMILES): Cc1cn(-c2cc(NC(=O)c3ccc(C)c(Nc4nccc(-c5cccnc5)n4)c3)cc(C(F)(F)F)c2)cn1 [4-Methyl-3-[[4-(3-pyridinyl)-2-pyrimidinyl]amino]-N-[5-(4-methyl-1H-imidazol-1-yl)-3-(trifluoromethyl)phenyl] benzamide]
Inhibition of EphB4 phosphorylation (EphB4): dose dependently inhibited EphB4 phosphorylation
